Measured values: patent US8835428B2, “Diacylglycerol acyltransferase inhibitors” (Piramal Enterprises Limited, priority 2008, dated 2014)

Biological target: T1, hDGAT1 (Homo sapiens, UniProt O75907)
T1 construct: host or cells: Sf9 insect cells (baculovirus); microsomal preparation
T1 sequence (O75907 1-488): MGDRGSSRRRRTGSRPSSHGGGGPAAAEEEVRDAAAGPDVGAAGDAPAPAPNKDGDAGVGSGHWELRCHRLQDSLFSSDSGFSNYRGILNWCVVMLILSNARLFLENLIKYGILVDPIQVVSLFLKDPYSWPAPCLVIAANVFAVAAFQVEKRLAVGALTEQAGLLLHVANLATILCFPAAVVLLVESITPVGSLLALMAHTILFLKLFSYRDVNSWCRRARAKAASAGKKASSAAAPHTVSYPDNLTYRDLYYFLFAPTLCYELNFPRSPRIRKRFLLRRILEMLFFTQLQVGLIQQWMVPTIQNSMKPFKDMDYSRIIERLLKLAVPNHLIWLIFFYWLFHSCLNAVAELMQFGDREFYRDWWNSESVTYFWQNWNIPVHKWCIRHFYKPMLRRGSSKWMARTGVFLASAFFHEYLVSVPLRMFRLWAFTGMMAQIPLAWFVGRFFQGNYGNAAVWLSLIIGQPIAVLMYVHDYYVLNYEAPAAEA
Assay: In-vitro DGAT1 assay (hDGAT1 microsomes from Sf9 cells, 14C oleoyl CoA, triglyceride formation)
Type: biochemical
Settings: At 1 μM
In short: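 Human DGAT1 in baculovirus-infected Sf9 microsomes (2.5–10 μg), [14C]oleoyl-CoA with 409.5, 1228.5 or 1638 μM 1,2-dioleoyl-sn-glycerol, Tris-HCl pH 7.4 buffer with BSA. Compounds screened at 10, 5 and 1 μM in duplicate. Reaction 10 min at 37 °C; heptane-extracted [14C]triglyceride counted by scintillation.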

inhibition at 1 µM	Structure (SMILES)
0 to 50%	CCS/C(=N\[C@@H](C(=O)OC)C(C)C)c1cc(-c2ccc(NC(=O)Nc3ccccc3F)cc2)no1 [Example 224, (R,Z)-Methyl 2-(ethylthio(3-(4-(3-(2-fluorophenyl)ureido)phenyl)isoxazol-5-yl)methyleneamino)-3-methylbutanoate]
75 to 100%	CC(C)[C@H](NC(=O)c1cc(-c2ccc(NC(=O)Nc3ccccc3Oc3ccccc3)cc2)no1)C(=O)O [Example 238, (S)-3-Methyl-2-(3-(4-(3-(2-phenoxyphenyl)ureido)phenyl)isoxazole-5-carboxamido)butanoic acid]
0 to 50%	COC(=O)[C@H](NC(=O)c1cc(-c2ccc(NC(=O)Nc3ccc(C#N)cc3)cc2)no1)C(C)C [Example 218, (R)-methyl 2-(3-(4-(3-(4-cyanophenyl)ureido)phenyl)isoxazole-5-carboxamido)-3-methylbutanoate]
75 to 100%	Cc1ccc(NC(=O)Nc2ccc(-c3cc(C(=O)NC(C(=O)O)C(C)C)on3)cc2)cc1F (stereo not drawn) [Example 250, 2-(3-(4-(3-(3-Fluoro-4-methylphenyl)ureido)phenyl)isoxazole-5-carboxamido)-3-methylbutanoic acid]
50 to 75%	CC(C)[C@@H](C(=O)O)N(C)C(=O)c1cc(-c2ccc(NC(=O)Nc3cccc(C(F)(F)F)c3)cc2)no1 [Example 310, (S)-3-methyl-2-(N-methyl-3-(4-(3-(3-(trifluoromethyl)phenyl)ureido)phenyl)isoxazole-5-carboxamido)butanoic acid]
0 to 50%	CC(C)[C@H](NC(=O)c1csc(-c2ccc(NC(=O)Nc3ccccc3Cl)cc2)n1)C(=O)O [Example 369, (S)-2-(2-(4-(3-(2-Chlorophenyl)ureido)phenyl)thiazole-4-carboxamido)-3-methylbutanoic acid]
0 to 50%	CC(C)[C@H](NC(=O)c1cc(-c2ccc(NC(=O)Nc3c(F)cccc3C(F)(F)F)cc2)no1)C(=O)O [Example 230, (S)-2-(3-(4-(3-(2-Fluoro-6-(trifluoromethyl)phenyl)ureido)phenyl)isoxazole-5-carboxamido)-3-methylbutanoic acid]

Same assay, conditions: At 5 μM

Structure (SMILES)	% inhibition of hDGAT1	inhibition at 5 µM
COC(=O)CCCNC(=O)c1cc(-c2ccc(NC(=O)Nc3ccc(C)cc3)cc2)no1 [Example 255, Methyl 4-(3-(4-(3-p-tolylureido)phenyl)isoxazole-5-carboxamido) butanoate]	+ (>0% Inhibition ≦50)	
COC(=O)C(Cc1ccccc1)NC(=O)c1cc(-c2ccc(NC(=O)Nc3ccc(C)cc3)cc2)no1 (stereo not drawn) [Example 243, Methyl 3-phenyl-2-(3-(4-(3-p-tolylureido)phenyl)isoxazole-5-carboxamido) propanoate]	+ (>0% Inhibition ≦50)	
COC(=O)C(NC(=O)c1cc(-c2ccc(NC(=O)Nc3ccc(-c4cc(C(=O)NC(C(=O)OC)C(C)C)on4)cc3)cc2)no1)C(C)C (stereo not drawn) [Example 281, 2-({3-[4-(3-{4-[5-(1-Methoxycarbonyl-2-methyl-propylcarbamoyl)-isoxazol-3-yl]-phenyl}-ureido)-phenyl]-isoxazol-5-carbonyl}-amino)-3-methyl-butyric acid methyl ester]		0 to 50%
COC(=O)[C@@H](NC(=O)c1cc(-c2ccc(NC(=S)Nc3cccc(F)c3)cc2)no1)C(C)C [Example 267, (S)-methyl 2-(3-(4-(3-(3-fluorophenyl)thioureido)phenyl)isoxazole-5-carboxamido)-3-methylbutanoate]		0 to 50%

More lines, now with the values ahead:

% inhibition of hDGAT1	inhibition at 5 µM	Structure (SMILES)
	50 to 75%	COC(=O)C(NC(=O)c1cc(-c2ccc(NC(=O)Nc3cccc(F)c3)cc2)no1)C(C)C (stereo not drawn) [Example 151, Methyl 2-(3-(4-(3-(3-fluorophenyl)ureido)phenyl)isoxazole-5-carboxamido)-3-methylbutanoate]
	50 to 75%	Cc1ccc(NC(=O)Nc2ccc(-c3noc(C(=O)N[C@H](C(=O)O)C(C)C)n3)cc2)cc1 [Example 347, (S)-3-Methyl-2-(3-(4-(3-p-tolylureido)phenyl)-1,2,4-oxadiazole-5-carboxamido)butanoic acid]
	75 to 100%	Cc1cccc(NC(=O)Nc2ccc(-c3cc(C(=O)N[C@H](C(=O)O)C(C)C)on3)cc2)c1 [Example 266, (S)-3-methyl-2-(3-(4-(3-m-tolylureido)phenyl)isoxazole-5-carboxamido)butanoic acid]
	0 to 50%	COC(=O)C(NC(=O)c1cc(-c2ccc(NC(=O)NS(=O)(=O)c3ccccc3C)cc2)no1)C(C)C (stereo not drawn) [Example 263, Methyl 3-methyl-2-(3-(4-(3-(o-tolylsulfonyl)ureido)phenyl)isoxazole-5-carboxamido)butanoate]
	50 to 75%	COC(=O)[C@H](CO)NC(=O)c1cc(-c2ccc(NC(=O)Nc3ccccc3F)cc2)no1 [Example 298, (S)-Methyl 2-(3-(4-(3-(2-fluorophenyl)ureido)phenyl)isoxazole-5-carboxamido)-3-hydroxypropanoate]

Same assay, conditions: At 10 μM

inhibition at 10 µM	Structure (SMILES)
50 to 75%	COC(=O)[C@@H]1CCCN1C(=O)c1cc(-c2ccc(Nc3nc4ccc(F)cc4s3)cc2)no1 [Example 18, (S)-1-{3-[4-(6-Fluoro-benzothiazol-2-ylamino)-phenyl]-isoxazole-5-carbonyl}-pyrrolidine-2-carboxylic acid methyl ester]
50 to 75%	COC[C@H](NC(=O)c1cc(-c2ccc(Nc3nc4ccc(F)cc4s3)cc2)no1)C(=O)OC [Example 12, (S)-2-({3-[4-(6-Fluoro-benzothiazol-2-ylamino)-phenyl]-isoxazole-5-carbonyl}-amino)-3-methoxy-propionic acid methyl ester]
0 to 50%	COC(=O)[C@H]1CSC(c2cc(-c3ccc(Nc4nc5ccc(F)cc5s4)cc3)no2)=N1 [Example 11, (S)-2-{3-[4-(6-Fluoro-benzothiazol-2-ylamino)-phenyl]-isoxazol-5-yl}-4,5-dihydro-thiazole-4-carboxylic acid methyl ester]
0 to 50%	O=C(O)c1cc(-c2cccc(Nc3nc4ccc(F)cc4s3)c2)no1 [Example 21, 3-[3-(6-Fluoro-benzothiazol-2-ylamino)-phenyl]-isoxazole-5-carboxylic acid]
75 to 100%	Cc1cc(-c2cc(C(=O)NC(C(=O)O)C(C)C)on2)ccc1NC(=O)Nc1ccc(F)cc1F (stereo not drawn) [Example 103, 2-(3-(4-(3-(2,4-Difluorophenyl)ureido)-3-methylphenyl)isoxazole-5-carboxamido)-3-methylbutanoic acid]
0 to 50%	COC(=O)[C@H](NC(=S)c1cc(-c2ccc(Nc3nc4ccc(F)cc4s3)cc2)no1)C(C)C [Example 39, (R)-2-({3-[4-(6-Fluoro-benzothiazol-2-ylamino)-phenyl]-isoxazole-5-carbothioyl}-amino)-3-methyl-butyric acid methyl ester]
50 to 75%	COC(=O)[C@@H](NC(=NO)c1cc(-c2ccc(Nc3nc4ccc(F)cc4s3)cc2)no1)C(C)C [Example 7, (S)-2-({3-[4-(6-Fluoro-benzothiazol-2-ylamino)-phenyl]-N-hydroxy-isoxazole-5-carboximidoyl}-amino)-3-methyl-butyric acid methyl ester]
0 to 50%	COC(=O)C(NC(=O)c1cc(-c2ccc(NC(=O)Nc3ccc(F)cc3F)cc2C)no1)C(C)C (stereo not drawn) [Example 137, Methyl 2-(3-(4-(3-(2,4-difluorophenyl)ureido)-2-methylphenyl)isoxazole-5-carboxamido)-3-methylbutanoate]
0 to 50%	COC(=O)C(CC(C)C)NC(=O)c1cc(-c2ccc(NC(=O)Nc3ccc(F)cc3F)cc2)no1 (stereo not drawn) [Example 113, Methyl 2-(3-(4-(3-(2,4-difluorophenyl)ureido)phenyl)isoxazole-5-carboxamido)-4-methylpentanoate]
0 to 50%	COC[C@H](NC(=O)c1cc(-c2cccc(Nc3nc4ccc(F)cc4s3)c2)no1)C(=O)O [Example 29, (S)-2-({3-[3-(6-Fluoro-benzothiazol-2-ylamino)-phenyl]-isoxazole-5-carbonyl}-amino)-3-methoxy-propionic acid]
0 to 50%	O=C(O)C1(NC(=S)c2cc(-c3ccc(Nc4nc5ccc(F)cc5s4)cc3)no2)CCCC1 [Example 65, 1-({3-[4-(6-Fluoro-benzothiazol-2-ylamino)-phenyl]-isoxazole-5-carbothioyl}-amino)-cyclopentanecarboxylic acid]
0 to 50%	COC(=O)[C@H](CC(C)C)NC(=O)c1cc(-c2ccc(NC(=O)Nc3ccc(F)cc3)cc2)no1 [Example 86, (S)-2-[(3-{4-[3-(4-Fluoro-phenyl)-ureido]-phenyl}-isoxazole-5-carbonyl)-amino]-4-methyl-pentanoic acid methyl ester]
50 to 75%	CC(C)[C@@H](NC(=S)c1cc(-c2ccc(Nc3nc4ccc(F)cc4s3)cc2)no1)C(=O)O [Example 43, (R)-2-({3-[4-(6-Fluoro-benzothiazol-2-ylamino)-phenyl]-isoxazole-5-carbothioyl}-amino)-3-methyl-butyric acid]
0 to 50%	COC(=O)[C@@H](NC(=O)c1onc(-c2ccc(NC(=O)Nc3ccccc3)cc2)c1-c1ccccc1)C(C)C [Example 88, (S)-3-Methyl-2-({4-phenyl-3-[4-(3-phenyl-ureido)-phenyl]-isoxazole-5-carbonyl}-amino)-butyric acid methyl ester]
